Test results published in US20260325473A1, “N-Beta-Hydroxybutyryl-Amino Acids and Related Compositions and Methods” (The Board of Trustees of the Leland Stanford Junior …, priority 2023, published 2026).

Experiments:
DIO mice = assay: Plasma AST, ALT, TG, HDL, LDL in DIO mice after chronic treatment; type: in vivo, mouse; details: 50 mg/kg/day IP; 14 days
Procedure: General animal information. Animal experiments were performed according to procedure approved by the Stanford University Administrative Panel on Laboratory Animal Care (APLAC). Mice were maintained in 12-hr light-dark cycles at 22° C. and ~50% relative humidity and fed a standard irradiated rodent chow diet. Where indicated, high-fat diet (D12492, Research Diets 60% kcal from fat) and ketogenic diet (D06040601, Research Diets, 80% kcal fat/15% kcal protein/5% kcal carbohydrate) was used. Male C57BL/6J (stock no. 000664) and male C57BL/6J DIO mice (stock no. 380050) were purchased from Jackson Laboratory. Male C57BL/6NCrl (stock no. 027) mice were purchased from Charles River Laboratory. Whole body CNDP2-KO mice (catalog number, C57BL/6NCrl-Cndp2em1 (IMPC) Mbp/Mmucd, RRID: MMRRC_043492-UCD) were obtained from the Mutant Mouse Regional Resource Center, a NCRR-NIH funded strain repository. For in vivo injection of mice with metabolites, compounds were dissolved in 18:1:1 (by volume) of saline/Kolliphor EL (Sigma Aldrich)/DMSO. Compounds were administered to mice daily via intraperitoneal injections at 5 μl/g body weight at the indicated doses. For all injection experiments, mice were mock injected with the vehicle for 3-5 days until body weights have stabilized. Sample sizes were determined on the basis of previous experiments using similar methodologies. For metabolite administration experiments, mice were randomly assigned to treatment groups. Experimenters were not blinded to groups.

[1] = Metabolite quantitation in mouse plasma (QQQ-LC/MS); type: in vivo
Procedure: Preparation of plasma samples for LC-MS analysis. Plasma was collected from mice via a submandibular bleed into lithium heparin tubes (BD, 365985) and immediately transferred onto ice. The blood was centrifuged at 4° C. at 5000 rpm for 5 min and the top layer of plasma was aliquoted and frozen at −80 °C. To extract polar metabolites from plasma for LC-MS analysis, 150 μl of a 2:1 mixture of acetonitrile/methanol was added to 50 μl of plasma. The mixture was centrifuged at 4° C. for 10 min at 15,000 rpm and the supernatant was transferred to a LC-MS vial.
(§1) Targeted metabolomics. Targeted measurements were performed using an Agilent 6470 triple quadrupole LC-MS instrument. MS analysis was performed using AJS in negative mode. The AJS source parameters were set as follows: the dry gas temperature was set at 250° C. with a gas flow of 12 l/min and the nebulizer pressure at 25 psi; the sheath gas temperature was set to 300° C. with the sheath gas flow set at 12 l/min; and the capillary voltage was set to 3,500 V. Separation of polar metabolites was performed as described above in the ‘Untargeted measurements of metabolites by LC-MS’ section. Multiple reaction monitoring was performed for the indicated metabolites with the listed dwell times, fragmentor voltage, collision energies, cell accelerator voltages and polarities. Quantification of the endogenous metabolite concentrations were performed by generating a standard curve with known concentrations of each metabolite. Metabolite standards were analyzed alongside the plasma samples using the same targeted triple quadrupole LC/MS method. A calibration standard curve generated from the metabolite standard concentrations and total peak areas were used to calculate the concentrations of each endogenous metabolite. The dilution of the plasma during the sample preparation was also taken into account for the quantification.

[2] = Keto-Med study, plasma metabolites; type: in vivo; details: human; 4 weeks WFKD vs baseline
Procedure: as §1
Keto-Med study. Keto-Med was a single-site, randomized, crossover, interventional trial comparing 2 metabolically distinct diets (well-formulated ketogenic diet, WFKD; and Mediterranean-plus diet, Med-Plus) among individuals with prediabetes and T2DM. Forty participants aged ≥18 years with prediabetes or T2DM followed the WFKD and the Med-Plus for 12 weeks each, in random order. Participants were randomly assigned into 1 of 2 different diet sequences: WFKD for 12 weeks (phase 1) and then the Med-Plus for 12 weeks (phase 2), or the opposite order. Ad libitum intake was advised, and participants were guided to follow 2 sets of dietary guidelines that shared 3 important similarities (incorporating nonstarchy vegetables and avoiding added sugars and refined grains) and 3 important differences (incorporating compared with avoiding legumes, fruits, and whole, intact grains). During the WFKD phase, participants were counseled to sustain nutritional ketosis by limiting carbohydrates to 20-50 g/day and keeping proteins to ~1.5 g/kg ideal body weight/day, with the remaining kcals coming from fats. Participants were also instructed to consume >3 servings/day of nonstarchy vegetables and maintain adequate mineral and fluid intake for the ketogenic state (sodium, 3-5 g/day; potassium, 3-4 g/day). […]

SMILES | plasma ALT (DIO mice) | plasma AST (DIO mice) | plasma HDL-cholesterol (DIO mice) | plasma LDL-cholesterol (DIO mice) | plasma total triglycerides (TG) (DIO mice) | effect of acute treadmill running on level ([1]; 15 min running) | elevation after ketone ester administration ([1]; 30 min after ketone drink, 3 mg/g) | effect of strenuous and prolonged exercise on level ([1]; 30 min strenuous running) | induction of plasma keto amino acids on WFKD [2]
CC(O)CC(=O)N[C@@H](Cc1ccccc1)C(=O)O (stereo partly drawn) [BHB-Phe, N-betahydroxybutyryl-phenylalanine] | reductions | reductions | no changes | no changes | reductions | unchanged | > 10 fold | robust co-induction | 
CC(O)CC(=O)N[C@H](C(=O)O)C(C)C (stereo partly drawn) [BHB-Val, N-betahydroxybutyryl-valine] |  |  |  |  |  |  |  |  | Robust induction
